According to publication PMC8540953, “Preparation and Pharmacokinetic Characterization of an Anti-Virulence Compound Nanosuspensions” (Pharmaceutics, 2021):

Experiments:
[1] = In vitro dissolution in 0.5% SDS solution; assay type: physicochemical; conditions: 37 °C, 75 rpm
Procedure: The concentrations of CCG-211790 nanosuspensions were measured using an Agilent series 1100 HPLC system (Agilent Technologies, Santa Clara, CA, USA) equipped with a diode array detector. Sample separation was carried out with a Kinetex C18 column (75 mm × 3 mm, particle size 2.6 µm, Phenomenex, Torrance, CA, USA). The mobile phase was acetonitrile-water (50:50, v/v), flow rate was set to 0.5 mL/min, and column temperature to 35 °C. The injection volume was 30 µL. The absorption wavelength was set at 255 nm. CCG-211790 nanoparticles were dissolved in the mobile phase for HPLC analysis. Due to the fact that the analyte concentration was high and no other matrix was present in the sample, the HPLC method performed very well with excellent calibration linearity, reproducibility, and spike recovery. During sample analysis, ongoing quality controls were performed including a reagent blank, a duplicate sample, and spike recovery samples for every 10 samples analyzed.
The in vitro dissolution profiles of CCG-211790 bulk powder, NanoA and NanoB suspensions were examined. SDS is one of the most frequently used artificial surfactants in dissolution test to establish sink conditions for water-insoluble drugs. Therefore, a SDS solution (0.5% w/v in water) was used as the dissolution medium in this study. In each dissolution test, suspension or powder equivalent to 4 mg of CCG-211790 were directly dispersed in 500 mL dissolution medium under magnetic stirring at 75 rpm. The temperature of the dissolution medium was maintained at 37 ± 1 °C in a water bath. Sample aliquots (3 mL) were withdrawn at predetermined time points (5, 10, 20, 30, 45, and 60 min) and immediately replaced with 3 mL of fresh dissolution medium to readjust the volume to 500 mL. Undissolved particles were separated by centrifugation at 10,000× g for 5 min and the supernatant was collected for HPLC analysis. All experiments were run in triplicate.

[2] = tested on: methicillin-resistant Staphylococcus aureus (MRSA); set-up: method as in PMID 33556134; conditions: cited from earlier work
[3] = cited from earlier work
[4] = Solubility and solution stability of CCG-211790; assay type: physicochemical; conditions: PEG/PG solution, aqueous with cosolvent or surfactant or cyclodextrin; ethanol (10%), propylene glycol (25%), PEG 400 (35%) and water (30%)

SMILES | drug release ([1]; at 5 min) | drug release ([1]; at 45 min) | drug release ([1]; at 60 min) | biofilm formation of MRSA [2] | aqueous solubility [3] | solubility in coconut oil [3] | solubility [4]
COc1ccc2c(c1)-c1nc(SCC(F)(F)F)n(C)c(=O)c1C(C)(C)C2 [CCG-211790 bulk powder] | 19.6% | 63.4% | 64.3% |  |  |  | 
COc1ccc2c(c1)-c1nc(SCC(F)(F)F)n(C)c(=O)c1C(C)(C)C2 [CCG-211790, 9-methoxy-3,5,5-trimethyl-2-((2,2,2-trifluoroethyl)thio)-5,6-dihydrobenzo[h]quinazolin-4(3H)-one] |  |  |  | inhibited | less than 50 ng/mL | up to 37 mg/mL | ≤ 1000 µg/mL
